Laboratory results: patent US10766869B2, “Triazoles for the treatment of demyelinating dieases” (Vertex Pharmaceuticals Incorporated, priority 2015, dated 2020)

System: primary rat mixed cortical cells
Assay: In vitro myelination assay (MBP positive myelin strands, fold myelin pixels above background)
Format: cell-based
Conditions: Rattus norvegicus, relative to baseline of no added compound; for fold induction at 1 µM: 1.0 μM compound, read-out: Fold myelin pixels above background, 1.0 μM; for fold induction at 10 µM: 10.0 μM compound, read-out: Fold myelin pixels above background, 10.0 μM
Excerpt: In Vitro Myelination Assay
Compounds were screened for their ability to induce myelination using a primary rat mixed cortical cell culture assay, which contains neurons, oligodendrocyte precursor cells, oligodendrocytes, astrocytes and microglia. The assay quantifies myelination by measuring myelin basic protein (MBP) immunofluorescent positive myelin strands from images taken using a Cellomics Array Scan (model Arrayscan VTI HCS Reader) or a Molecular Devices Image Xpress (model IXM XL) high content imager. The myelin strands were quantitated using a custom created myelin detection software program. Test compounds were dissolved in DMSO to make a 10 mM initial stock solution. Dilutions were made in myelination medium to obtain the final solutions for the assay and were tested in primary rat mixed cortical cells at selected doses.
Primary rat mixed cortical cells were prepared from harvested cerebral cortices from postnatal day 1 (P1) rats (P1 Rat CD® IGS pups) were purchased from Charles River) in Complete Dissociation Medium, wherein the meninges were removed and the cortical tissue chopped with a razor blade into ˜1 mm^3 pieces. Tissue from 1-3 pups was collected and placed into 15 ml conical tubes in a total volume of 5 ml of Complete Dissociation Medium. Activated papain (3 ml) was added to each 15 ml conical tube and tissue was incubated at 37° C. for 30 minutes. After the 30 minute incubation, DNase (Sigma D4527; 75 μl of a 1 mg/ml stock) was added to each tube, followed by mechanical trituration using a 2 ml serological pipette and autopipettor to gently dissociate the tissue. Following trituration, larger tissue pieces were allowed to settle by gravity, and the supernatant containing dissociated cells was transferred to a 50 ml conical tube with 4 ml of trypsin inhibitor. Cells were pelleted by centrifugation, resuspended in myelination medium and filtered through a 40 μm filter. Cells were then seeded in 96-well plates (BD Biosciences, Black, PDL-coated, Cat. No. 356640) at 87,500-95,000 cells/well in a final volume of 200 μl of Myelination Medium in the presence or absence of compound and cultured for 14 days in a humidified 37° C. incubator with 5% CO2. Half the medium was removed and replaced with fresh medium containing 1× compound on days 6 and 10. Using a Biotek automatic plate washer (model Biomek® FXP Laboratory Automation Workstation), cells were fixed with 4% paraformaldehyde on day 14, washed with PBS and blocked in 5% normal goat serum (Vector Laboratories, S-1000) in 0.1% PBS-TritonX-100 (PBST) for 1 hour. Cells were stained with 1:500 anti-MBP (Covance, cat # SMI99) primary antibody in 1% normal goat serum in 0.1% PBST for 2 hours at room temperature followed by 2 washes with PBST. A final incubation in secondary antibody (1:1000, Invitrogen, Alexa-488 anti-mouse IgG2b) and 1:10,000 Hoechst dye in 1% normal goat serum in 0.1% PBST was performed for 2 hours at room temperature. Plates were washed with PBS and then scanned on a Cellomics Array Scan using a 10× objective (25 images per well) or the Image Xpress using a 10× objective (9 image per well). Images were analyzed using Vertex myelin detection software (described below) to quantify total MBP myelin pixels per well. Fold myelin pixels above background at two concentrations (1.0 μM and 10.0 μM) relative to baseline of no added compound are reported below in Table 4. Standard deviation for each compound concentration was calculated using all replicates and using a standard deviation formula commonly used in the art.
One of skill in the art would recognize that for this type of primary neuronal mixed cell assay variability between different assay runs is to be expected even though the protocol is the same for each assay run. For instance, variability may be due to small differences in cell viability, cell density, age of the animals, etc.
Vertex Myelin Detection Software: […]

| SMILES | fold induction at 1 µM | fold induction at 10 µM |
| --- | --- | --- |
| CCc1cc(Nc2ncn(-c3cccc(F)c3)n2)cc(N2CC(N3CCOCC3)C2)c1 [Compound 15, N-[3-ethyl-5-(3-morpholinoazetidin-1-yl)phenyl]-1-(3-fluorophenyl)-1,2,4-triazol-3-amine] | 100 to 1000 | 10 to 100 |
| CCc1cc(Nc2ncn(-c3ccnc(F)c3)n2)cc(N2CCN(C3COC3)CC2)c1 [Compound 16, N-[3-ethyl-5-[4-(oxetan-3-yl)piperazin-1-yl]phenyl]-1-(2-fluoro-4-pyridyl)-1,2,4-triazol-3-amine] | 100 to 1000 | 10 to 100 |
| CC(C)(C)c1cc(Nc2ncn(-c3cc(F)cc(F)c3)n2)cc(N2CCN(C3COC3)CC2)c1 [Compound 17, N-[3-tert-butyl-5-[4-(oxetan-3-yl)piperazin-1-yl]phenyl]-1-(3,5-difluorophenyl)-1,2,4-triazol-3-amine] | 100 to 1000 | ≤ 1 |
| Cc1cc(Nc2ncn(-c3ccccc3)n2)cc(C2(F)CCN(C3COC3)C2)c1 (stereo not drawn) [Compound 18, N-[3-[3-fluoro-1-(oxetan-3-yl)pyrrolidin-3-yl]-5-methyl-phenyl]-1-phenyl-1,2,4-triazol-3-amine] | 1000 to 10000 | 1 to 10 |
| Cc1cc(Nc2ncn(-c3cc(F)cc(F)c3)n2)cc(N2CCn3ccnc3C2)c1 [Compound 19, 1-(3,5-difluorophenyl)-N-[3-(6,8-dihydro-5H-imidazo[1,2-a]pyrazin-7-yl)-5-methyl-phenyl]-1,2,4-triazol-3-amine] | 10 to 100 | 1 to 10 |
| Cc1cc(Nc2ncn(-c3cnccn3)n2)cc(N2CCN(C3CC3)CC2)c1 [Compound 20, N-[3-(4-cyclopropylpiperazin-1-yl)-5-methyl-phenyl]-1-pyrazin-2-yl-1,2,4-triazol-3-amine] | 10 to 100 | 100 to 1000 |
| Cc1cc(Nc2ncn(-c3ccccc3)n2)cc(N2CC(C)NCC2C)c1 (stereo not drawn) [Compound 21, N-[3-(2,5-dimethylpiperazin-1-yl)-5-methyl-phenyl]-1-phenyl-1,2,4-triazol-3-amine] | 10 to 100 | ≤ 1 |
| COc1ccc(-n2cnc(Nc3cc(C4CC4)nc(N4CCC(C)CC4)c3)n2)cc1OC [Compound 22, 2-cyclopropyl-N-[1-(3,4-dimethoxyphenyl)-1,2,4-triazol-3-yl]-6-(4-methyl-1-piperidyl)pyridin-4-amine] | 100 to 1000 | 100 to 1000 |
| Cc1cc(Nc2ncn(-c3cc(F)cc(F)c3)n2)cc(C2(F)CCN(C)C2)c1 (stereo not drawn) [Compound 23, 1-(3,5-difluorophenyl)-N-[3-(3-fluoro-1-methyl-pyrrolidin-3-yl)-5-methyl-phenyl]-1,2,4-triazol-3-amine] | 10 to 100 | 10 to 100 |
| Cc1cc(Nc2ncn(-c3cncc(F)c3)n2)cc(N2CCN(C3COC3)CC2)c1 [Compound 24, 1-(5-fluoro-3-pyridyl)-N-[3-methyl-5-[4-(oxetan-3-yl)piperazin-1-yl]phenyl]-1,2,4-triazol-3-amine] | 10 to 100 | 100 to 1000 |
| Cc1cc(Nc2ncn(-c3cc(F)cc(F)c3)n2)cc(C2CCN(C3COC3)C2)c1 (stereo not drawn) [Compound 25, 1-(3,5-difluorophenyl)-N-[3-methyl-5-[1-(oxetan-3-yl)pyrrolidin-3-yl]phenyl]-1,2,4-triazol-3-amine] | 1000 to 10000 | 1000 to 10000 |
| FC(F)c1cc(Nc2ncn(-c3ccccc3)n2)cc(N2CCN(C3COC3)CC2)c1 [Compound 26, N-[3-(difluoromethyl)-5-[4-(oxetan-3-yl)piperazin-1-yl]phenyl]-1-phenyl-1,2,4-triazol-3-amine] | 100 to 1000 | ≤ 1 |
| Cc1cc(Nc2ncn(-c3cccc(F)c3)n2)cc(N2CCOCC2)c1 [Compound 27, 1-(3-fluorophenyl)-N-(3-methyl-5-morpholino-phenyl)-1,2,4-triazol-3-amine] | 1000 to 10000 | 100 to 1000 |
| CN1CCCN(c2cc(F)cc(Nc3ncn(-c4ccc(F)cc4F)n3)c2)CC1 [Compound 28, 1-(2,4-difluorophenyl)-N-[3-fluoro-5-(4-methyl-1,4-diazepan-1-yl)phenyl]-1,2,4-triazol-3-amine] | ≤ 1 | ≤ 1 |
| Cc1cc(Nc2ncn(-c3cc(F)cc(F)c3)n2)cc(N2CC(CC(C)C)N3CCC[C@@H]3C2)c1 (stereo partly drawn) [Compound 29, N-[3-[(8aR)-4-isobutyl-3,4,6,7,8,8a-hexahydro-1H-pyrrolo[1,2-a]pyrazin-2-yl]-5-methyl-phenyl]-1-(3,5-difluorophenyl)-1,2,4-triazol-3-amine] | ≤ 1 | ≤ 1 |
| COc1nccc(-n2cnc(Nc3cc(C)cc(N4CCN(C5COC5)CC4)c3)n2)n1 [Compound 30, 1-(2-methoxypyrimidin-4-yl)-N-[3-methyl-5-[4-(oxetan-3-yl)piperazin-1-yl]phenyl]-1,2,4-triazol-3-amine] | ≤ 1 | 100 to 1000 |
| CCc1cc(Nc2ncn(-c3ccc(C)cc3)n2)cc(N2CCN(C3COC3)CC2)c1 [Compound 31, N-[3-ethyl-5-[4-(oxetan-3-yl)piperazin-1-yl]phenyl]-1-(p-tolyl)-1,2,4-triazol-3-amine] | 100 to 1000 | 100 to 1000 |
| Cc1cc(Nc2ncn(-c3cc(F)cc(Cl)c3)n2)cc(N2CCN(C3COC3)CC2)c1 [Compound 32, 1-(3-chloro-5-fluoro-phenyl)-N-[3-methyl-5-[4-(oxetan-3-yl)piperazin-1-yl]phenyl]-1,2,4-triazol-3-amine] | 1000 to 10000 | 100 to 1000 |
| Cc1cc(Nc2ncn(-c3cc(F)cc(F)c3)n2)cc(N2C[C@@H]3C[C@H]2CN3C2COC2)c1 [Compound 34, 1-(3,5-difluorophenyl)-N-[3-methyl-5-[(1S,4S)-2-(oxetan-3-yl)-2,5-diazabicyclo[2.2.1]heptan-5-yl]phenyl]-1,2,4-triazol-3-amine] | 100 to 1000 | ≤ 1 |
| Fc1cc(F)cc(-n2cnc(Nc3cc(C4=CCOCC4)nc(C4CC4)c3)n2)c1 [Compound 35, 2-cyclopropyl-N-[1-(3,5-difluorophenyl)-1,2,4-triazol-3-yl]-6-(3,6-dihydro-2H-pyran-4-yl)pyridin-4-amine] | 100 to 1000 | 10 to 100 |
| Cc1cc(Nc2ncn(-c3cccc(F)c3)n2)cc(C2CN(C3COC3)C2)c1 [Compound 36, 1-(3-fluorophenyl)-N-[3-methyl-5-[1-(oxetan-3-yl)azetidin-3-yl]phenyl]-1,2,4-triazol-3-amine] | 1000 to 10000 | ≤ 1 |
| Cc1cc(Nc2ncn(-c3cc(F)cc(F)c3)n2)cc(N2CCN(C)CC2)c1 [Compound 37, 1-(3,5-difluorophenyl)-N-[3-methyl-5-(4-methylpiperazin-1-yl)phenyl]-1,2,4-triazol-3-amine] | 100 to 1000 | ≤ 1 |
| Cc1cc(Nc2ncn(-c3cc(F)cc(F)c3)n2)cc(NC2CCN(C3COC3)CC2)c1 [Compound 38, N3-[1-(3,5-difluorophenyl)-1,2,4-triazol-3-yl]-5-methyl-N1-[1-(oxetan-3-yl)-4-piperidyl]benzene-1,3-diamine] | 10 to 100 | 10 to 100 |
| Cc1cc(Nc2ncn(-c3ccccc3)n2)cc(C2CCNC2)c1 (stereo not drawn) [Compound 39, N-(3-methyl-5-pyrrolidin-3-yl-phenyl)-1-phenyl-1,2,4-triazol-3-amine] | 1000 to 10000 | ≤ 1 |
